Assay results reported in patent US9551036B2, “Metabolic gene mesenchymal signatures and uses thereof” (Whitehead Institute for Biomedical Research, priority 2013, dated 2017).
“Also recorded” adds a separate entry of the source.

Columns and labels:
HMLE-Twist-ER cells [1] = experiment: LC-MS measurement of cellular DHU and uracil; type: cell-based, human; conditions: OHT treatment of HMLE-Twist-ER cells, 15 days time course
Protocol: Solvents were obtained from Fisher Scientific and were Optima LC/MS grade except where otherwise specified. Cells grown in standard tissue culture plates (500,000 cells per sample) were washed twice in an ice-cold solution of 0.9% NaCl in deionized water, followed by extraction on dry ice in 1 mL 80% methanol containing 10 ng/mL phenylalanine-d8 and valine-d8 (Sigma-Aldrich) as internal standards. The cell mixtures were shaken vigorously on a Vortex mixer for 10 min. at 4° C., vacuum-dried, and resuspended in 100 μL LC/MS grade water (Fisher). These extracts were then centrifuged at 15,000×g at 4° C. for 10 min, and the supernatants were passed through a cellulose acetate particulate filter (National Scientific). […]
The UPLC system was coupled to a QExactive orbitrap mass spectrometer equipped with a HESI II probe (Thermo Fisher Scientific) operating in positive ion mode. […] Quantitation of the data was performed with XCalibur QuanBrowser 2.2 (Thermo Fisher Scientific) using a 5 ppm mass tolerance, by a researcher blinded to the identity of the samples. Pure thymine (T0376), and uracil (U1128) were obtained from Sigma-Aldrich and dihydrothymine (L01996), and dihydrouracil (L01918) were obtained from Alfa Aesar and were run in half-log serial dilution (3 nM-100 μM) to confirm chromatographic retention times and generate standard curves for quantitation of each analytical batch.

HMLE-Twist-ER cells [2] = experiment: in vitro mammosphere formation assay; type: cell-based, human; conditions: HMLE-Twist-ER cells expressing shDPYD_1, exogenous addition of metabolite
Protocol: 500 cells/well were seeded in 96-well ultra-low adhesion plates (Corning, 3474) in MammoCult Basal Medium (Stem Cell Technology, 05621) containing 2.6% methylcellulose (Stem Cell Technology, H4100) and 10% MammoCult Proliferation Supplements (Stem Cell Technology, 05621), supplemented with 0.5 μg/ml hydrocortisone, 4 μg/ml Heparin and Pen/strep. Spheres were counted 12-14 days later.

Row | Compound | increase of cellular DHU/uracil molar ratio (HMLE-Twist-ER cells [1]) [fold] | rescue of mammosphere formation (HMLE-Twist-ER cells [2])
1 | 4-hydroxytamoxifen [OHT] | 5 | 
2 | CC1CNC(=O)NC1=O (stereo not shown) [DHT, dihydrothymine] |  | dose-dependent rescue of mammosphere formation
3 | O=C1CCNC(=O)N1 [DHU, dihydrouracil] |  | more strongly than uracil; also recorded: dose-dependent rescue of mammosphere formation
4 | O=c1cc[nH]c(=O)[nH]1 [uracil] |  | significantly smaller effect
